Entries after “also recorded” stand apart in the source; their conditions may differ.
Assays:
[1] = test system: recombinant mouse C9; assay: Microscale thermophoresis (MST) binding to recombinant mouse C9; conditions: NT-647-labeled mouse C9 1.5 μM, peptides 1.68 to 0 mM, distilled water with 0.05% Tween 20, three independent measurements
Experimental: (§1) To assess the binding affinity of the peptides to human or mouse complement C9, a fluorescence-based biophysical technique known as MST (NanoTemper Technologies GmbH, Germany) was used. Briefly, human or mouse C9 was fluorescently labeled using a Monolith NT™ Protein Labeling Kit NT-647 (NanoTemper Technologies GmbH, Germany) based on the manufacturer's protocol. Next, the peptides were gradiently diluted in distilled water from 1.68 to 0 mM. The labeled human or mouse C9 (1.5 μM) was then incubated with various peptide concentrations for 10 min at room temperature before being loaded into K002 silica capillaries. Measurements were performed using a NanoTemper Monolith NT.115 instrument in distilled water containing 0.05% Tween 20. The data were analyzed using NanoTemper Analysis software (NanoTemper Technologies GmbH, Germany).
To evaluate whether the modified peptide can cross the species barrier to inhibit murine MAC assembly in addition to human MAC assembly and to provide a preliminary experimental basis for the in vivo mouse experiments, MST assays were used again to assess the binding ability of the peptides to recombinant mouse C9. […] To evaluate whether this binding can inhibit NMS-induced erythrocyte lysis (involving the alternative complement pathway), hemolytic assays were performed.
(A) Microscale thermophoresis assay (NanoTemper) in which biomolecular interactions are quantitated by examining the motion of the molecules along a microscopic temperature gradient induced by an infrared laser. Changes in the molecular hydration shell, charge, or size are measured using a fluorescent probe (NT-647) bound covalently to the mouse C9. Binding of control, modified and original peptides to mouse C9 were studied. […] Data points indicate the differences in normalized fluorescence (%) generated by peptides binding to mouse C9, and curves indicate the calculated fits. Error bars represent the standard error of three independent measurements. […] All experiments were performed three times and data are presented as mean ± SD. *p < 0.05, **p < 0.01.

[2] = test system: complement in normal mouse serum (NMS); rabbit erythrocytes; assay: NMS-induced complement-mediated hemolysis of rabbit erythrocytes (alternative pathway); type: cell-based; conditions: for inhibition of NMS-induced erythrocyte lysis: NMS 1:12.5, peptide 1.31, 2.62, 5.24 μmol, Mg-EGTA, 37°C 40 min, then rabbit erythrocytes 1 × 10^8, 30 min 37°C, absorbance 412 nm; for inhibition of NMS-induced erythrocyte lysis / inhibition of NMS-induced hemolysis compared to control peptide: three experiments; for NMS-induced erythrocyte lysis at 5.24 μmol: peptide 5.24 μmol, NMS 1:12.5; for inhibition of NMS-induced hemolysis compared to control peptide: peptide 2.62 and 5.24 μmol, *p < 0.05, **p < 0.01
Experimental: Normal human serum (NHS) was collected from six healthy volunteers, and the donation procedure was approved by the Institutional Review Board (IRB) of Capital Medical University (approval number: 2016SY01). After venous blood was collected, it was clotted in serum separator tubes for 4 h at room temperature and then centrifuged at 1,000 g for 30 min to obtain the serum. The serum was divided into aliquots and stored at −80°C. To obtain normal mouse serum (NMS), blood was collected in the […] of mice under ether anesthesia and the serum was separated and stored as described above.
When rabbit erythrocytes are placed in xenogeneic serum (such as NHS or NMS), the alternative pathway of the complement system is activated, causing lysis of the rabbit erythrocytes. To evaluate the effects of the peptides on the complement activation-mediated erythrocyte lysis (involving the alternative complement pathway), NHS or NMS (1:12.5) was incubated with various concentrations of peptides (1.31, 2.62, and 5.24 μmol) in Mg-EGTA solution (5 mM MgCl2, 10 mM EGTA) at 37°C for 40 min before adding the mixture to freshly washed erythrocytes (1 × 10^8) in gelatin veronal-buffered saline (pH 7.4, containing 0.1% gelatin) for 30 min at 37°C. Lysis was stopped with cold Hanks' Balanced Salt Solution (HBSS^++) containing 10 mM ethylenediaminetetraacetic acid (EDTA). The samples were then centrifuged at 1,000 g for 10 min to obtain the supernatant, and the amount of released hemoglobin in the supernatant was determined by measuring the absorbance at 412 nm. The hemolytic activity relative to the water-induced lysis among the same number of erythrocytes was calculated.
Figure 2 Modified peptide bound to mouse complement C9 and inhibited normal mouse serum (NMS)-induced hemolysis of rabbit erythrocytes. (A) Microscale thermophoresis assay (NanoTemper) in which biomolecular interactions are quantitated by examining the motion of the molecules along a microscopic temperature gradient induced by an infrared laser. Changes in the molecular hydration shell, charge, or size are measured using a fluorescent probe (NT-647) bound covalently to the mouse C9. Binding of control, modified and original peptides to mouse C9 were studied. […] Data points indicate the differences in normalized fluorescence (%) generated by peptides binding to mouse C9, and curves indicate the calculated fits. Error bars represent the standard error of three independent measurements. (B) NMS-induced complement-mediated hemolysis was inhibited by the modified and original peptides (2.62 and 5.24 μmol) compared to the control peptide. All experiments were performed three times and data are presented as mean ± SD. *p < 0.05, **p < 0.01.

[3] = test system: human complement C9; assay: Microscale thermophoresis (MST) binding to human C9; conditions: for binding to human C9: NT-647-labeled human C9 1.5 μM, peptides diluted from 1.68 to 0 mM, distilled water with 0.05% Tween 20, 10 min room temperature, three independent measurements
Experimental: as §1
Figure 1 Modified peptide bound to human complement C9 and inhibited C9 polymerization-induced bio-function. (A) Microscale thermophoresis assay (NanoTemper) in which biomolecular interactions were quantitated by examining the motion of the molecules along a microscopic temperature gradient induced by an infrared laser. Changes in the molecular hydration shell, charge, or size are measured using a fluorescent probe (NT-647) bound covalently to the human C9. Binding of control, modified and original peptides to human C9 were studied. Data points indicate the differences in normalized fluorescence (%) generated by peptides binding to […], and curves indicate the calculated fits. […] Error bars represent the standard error of three independent measurements. […] Lane M: standard protein markers; lane 1: blank control (C9 without Zn^2+); lane 2: positive control (C9 with Zn^2+); lane 3: 5.24 μmol original peptide; lanes 4–6, 1.31, 2.62, and 5.24 μmol modified peptide, respectively; lane 7, 5.24 μmol control peptide. (C) Normal human serum (NHS)-induced complement-mediated hemolysis was inhibited by the modified and original peptides (2.62 and 5.24 μmol) compared to the control peptide. All experiments were performed three times and data are presented as mean ± SD. *p < 0.05, **p < 0.01.

Substance	binding to recombinant mouse C9 [1]	inhibition of NMS-induced erythrocyte lysis [2]	binding to human C9 [3]	NMS-induced erythrocyte lysis at 5.24 μmol [2]	inhibition of NMS-induced hemolysis compared to control peptide [2]	binding affinity to human C9 compared with original peptide ([3]; labeled human C9 1.5 μM, peptides 1.68 to 0 mM, Kd not given)
GKMSVMSVYKSVLS [control peptide, reference compound]	could not	no inhibitory effect	no binding between human C9 and the control peptide			
Myr-GSSKSPSKKKKKKPG-ACP-VSMGKSLSSKVYVM [modified peptide, Ts-pmy-derived peptide modified with a membrane-targeting signal]	could bind to the recombinant mouse C9; also recorded: concentration-dependent binding	inhibited in a dose-dependent manner	human C9 could bind to both the original and modified peptides; also recorded: concentration-dependent binding	reduced, to a similar level to the NHS-induced erythrocyte lysis	inhibited	binding affinity that was similar to that of the original peptide
VSMGKSLSSKVYVM [original peptide, tetradecapeptide derived from Trichinella spiralis paramyosin (Ts-pmy)]	could bind to the recombinant mouse C9; also recorded: concentration-dependent binding	inhibited in a dose-dependent manner	human C9 could bind to both the original and modified peptides; also recorded: concentration-dependent binding	reduced, to a similar level to the NHS-induced erythrocyte lysis	inhibited	

Reference: paper PMC7785802, “Therapeutic Efficacy of a Trichinella Spiralis Paramyosin-Derived Peptide Modified With a Membrane-Targeting Signal in Mice With Antigen-Induced Arthritis” (Frontiers in Microbiology, 2020)
